Laboratory results taken from patent US11116765B2 (GRIFOLS, S.A., priority 2014, dated 2021).
Like-named read-outs stand apart in the source and are kept apart here.

Legend:
M. avium 104 [1] = details: THP-1 human macrophages, 200 mcg/mL
M. avium 104 [2] = details: 100 mcg/mL
M. abscessus 105 = details: 100 mcg/mL
M. avium 104 [3] = details: THP-1 human macrophages, 20 mcg/mL
[4] = system: Mycobacterium avium subsp hominissuis (MAH) MAC104 strain; test: MAH lung infection in C57BL/6 mice, intranasal treatment; format: in vivo; details: 3 weeks
M. avium = details: incubation of M. avium with antibiotic; cited from earlier work

| SMILES | Colonization in macrophages, Time: 4 days (M. avium 104 [1]) | Biofilm Colonization, Time: 4 Days (M. avium 104 [2]) | Biofilm Colonization, Time: 4 Days (M. abscessus 105) | Colonization in macrophages, Time: 4 days (M. avium 104 [3]) | effect on the growth of MAH in the lungs of mice compared with saline control [4] | effect on M. avium biofilm formation (M. avium) |
| --- | --- | --- | --- | --- | --- | --- |
| O=C(O)c1cn(C2CC2)c2cc(N3CCNCC3)c(F)cc2c1=O [Ciprofloxacin, ciprofloxacin] | 5.0 ± 0.3 × 10^4 | 4.0 ± 0.3 × 10^7 | 3.0 ± 0.5 × 10^7 | 1.1 ± 0.4 × 10^4 | no significant effect | – |
| [H]/N=C(/N)N[C@H]1[C@H](O)[C@@H](O)[C@H](O[C@@H]2O[C@@H](C)[C@](O)(C=O)[C@H]2O[C@@H]2O[C@@H](CO)[C@H](O)[C@@H](O)[C@@H]2NC)[C@@H](N/C(N)=N\[H])[C@@H]1O [streptomycin] | – | – | – | – | – | increase |
| CC1(C)S[C@@H]2[C@H](NC(=O)[C@H](N)c3ccccc3)C(=O)N2[C@H]1C(=O)O [ampicillin] | – | – | – | – | – | no effect on biofilm |
